In ChEMBL document CHEMBL4739717, “Methods of treating cartilage disorders through inhibition of clk and dyrk” (2020):

Columns and labels:
[1] = molecular target: Dual specificity tyrosine-phosphorylation-regulated kinase 1A (Homo sapiens, UniProt Q13627); experiment: Inhibition of recombinant DYRK1A (unknown origin) using Ser/Thr 18 peptide as substrate incubated for 1 hr in presence of ATP by FRET assay
[2] = Induction of chondrogenesis in human MSC assessed as incubated for 6 days by rhodamine B and Nile red staining based imaging analysis; format: functional; details: bmmsc
[3] = Effect on Wnt signaling pathway in human SW480 cells harbouring TCF/LEF luciferase reporter gene and SP5-Luc reporter gene incubated for 36 to 48 hrs by luminescence assay; format: cell-based
[4] = Induction of chondrogenesis in human MSC assessed as maximum activity at 10 nM incubated for 6 days by rhodamine B and Nile red staining based imaging analysis relative to control; format: functional; details: BMMSC, 144 h, time 6 day

EC50 [1] [nM] | EC50 [2] [nM] | EC50 [3] [nM] | SMILES | Emax at 0.01 µM [4] [%]
48 | 30 | 1050 | CN(C)Cc1cncc(-c2ccc3[nH]nc(-c4nc5c(-c6cccc(F)c6)nccc5[nH]4)c3n2)c1 | 75.6
44 | 10 | 572 | CC(C)CC(=O)Nc1cncc(-c2cc3c(-c4cc5c(-c6cccs6)nccc5[nH]4)n[nH]c3cn2)c1 | 81.4
12 | 10 | 22.3 | COc1cncc(C(=O)Nc2c[nH]nc2C(=O)Nc2ccc(OCCN3CCCC3)nc2)c1 | 106
29 | – | 28.3 | c1cncc(-c2cc3c(-c4nc5c(-c6cccnc6)nccc5[nH]4)n[nH]c3cn2)c1 | 44.5
68 | 10 | 1100 | CS(=O)(=O)NCc1cc(F)cc(-c2nccc3[nH]c(-c4n[nH]c5ccc(-c6cncc(CN7CCCCC7)c6)nc45)cc23)c1 | 50.1
13 | 10 | 180 | CCC(=O)Nc1cncc(-c2cnc3[nH]nc(-c4cc5c(-c6cccnc6)cccc5[nH]4)c3c2)c1 | 671
15 | 30 | 1270 | CC(C)Nc1cncc(-c2ccc3[nH]nc(-c4nc5c(-c6cccnc6)cncc5[nH]4)c3n2)c1 | 64.6
48 | 10 | 390 | O=C(Nc1cncc(-c2cnc3[nH]nc(-c4cc5c(-c6ccccc6F)cncc5[nH]4)c3c2)c1)C1CC1 | 52.1
11 | 10 | 395 | CCNCc1cncc(-c2ccc3[nH]nc(-c4cc5ccccc5[nH]4)c3c2)c1 | 532
43 | 10 | 1280 | CN(C)Cc1cncc(-c2ccc3[nH]nc(-c4cc5c(-c6cccc(F)c6)cncc5[nH]4)c3c2)c1 | 193
41 | 10 | 1980 | Fc1ccccc1-c1nccc2[nH]c(-c3n[nH]c4cnc(-c5cncc(CN6CCCC6)c5)cc34)cc12 | 69.4
38 | – | 55.3 | CC(C)CC(=O)Nc1cncc(-c2cc3c(-c4nc5c(-c6ccoc6)cccc5[nH]4)n[nH]c3cn2)c1 | 58
72 | 30 | 800 | O=C(Nc1cncc(-c2ccc3[nH]nc(-c4nc5c(-c6ccc(Cl)s6)cncc5[nH]4)c3n2)c1)C1CCC1 | 67.9
54 | 10 | 3330 | Clc1ccc(-c2cncc3[nH]c(-c4n[nH]c5ccc(-c6cncc(CN7CCCC7)c6)nc45)nc23)s1 | 62
18 | 10 | > 10000 | CCCCC(=O)Nc1cncc(-c2ccc3[nH]nc(-c4nc5c(-c6cc(F)cc(NCCN(C)C)c6)ccnc5[nH]4)c3n2)c1 | 71.4
10 | 10 | 291 | Fc1ccc(-c2nccc3[nH]c(-c4n[nH]c5cnc(-c6cncc(CN7CCC(F)(F)C7)c6)cc45)cc23)cc1 | 61.2
100 | 10 | > 10000 | CS(=O)(=O)NCc1cc(F)cc(-c2nccc3[nH]c(-c4n[nH]c5ccc(-c6cncc(NC(=O)Cc7ccccc7)c6)nc45)cc23)c1 | 110
97 | 30 | > 10000 | c1cncc(-c2ccc3[nH]nc(-c4nc5cnccc5[nH]4)c3n2)c1 | 54.8
77 | 10 | 275 | CC(C)C(=O)Nc1cncc(-c2cc3c(-c4cc5c(-c6cccnc6)cccc5[nH]4)n[nH]c3cn2)c1 | 201
19 | 10 | > 10000 | CC(C)Nc1cncc(-c2cc3c(-c4cc5c(-c6cccnc6)ccnc5[nH]4)n[nH]c3cn2)c1 | 77
69 | 30 | 1370 | CN(C)Cc1cncc(-c2ccc3[nH]nc(-c4cc5c(-c6ccccc6F)cncc5[nH]4)c3n2)c1 | 50.6
26 | 30 | 377 | COc1cccc(-c2nccc3[nH]c(-c4n[nH]c5ccc(-c6cccnc6)nc45)nc23)c1 | 50.6
9 | 30 | > 10000 | CN1CCN(c2cncc3[nH]c(-c4n[nH]c5ccc(-c6cncc(N)c6)nc45)nc23)CC1 | 64.6
14 | – | 1680 | CCCC(=O)Nc1cncc(-c2cnc3[nH]nc(-c4cc5c(-c6cc(F)cc(CNS(C)(=O)=O)c6)cncc5[nH]4)c3c2)c1 | 36.7
34 | 10 | 710 | CN(C)c1cncc(-c2ccc3[nH]nc(-c4nc5c(-c6cccs6)cncc5[nH]4)c3n2)c1 | 65.6
59 | – | 3640 | c1cc(-c2ccoc2)c2cc(-c3n[nH]c4ccc(-c5cncc(CNCC6CCCC6)c5)nc34)[nH]c2c1 | 25.3

EC50 [1] [nM] | EC50 [2] [nM] | EC50 [3] [nM] | SMILES | Emax at 0.01 µM [4] [%]
14 | – | 479 | CC(C)CC(=O)Nc1cncc(-c2ccc3[nH]nc(-c4cc5c(-c6cc(F)cc(CNS(C)(=O)=O)c6)nccc5[nH]4)c3n2)c1 | 33.1
62 | – | 1050 | CN(C)Cc1cncc(-c2ccc3[nH]nc(-c4nc5c(-c6cccc(F)c6)cncc5[nH]4)c3n2)c1 | 16.7
19 | – | 0.1 | CC(C)CC(=O)Nc1cncc(-c2ccc3[nH]nc(-c4nc5c(-c6cccs6)cncc5[nH]4)c3c2)c1 | 53.3
36 | – | 1 | CC(C)Nc1cncc(-c2ccc3[nH]nc(-c4nc5c(-c6ccccc6F)cncc5[nH]4)c3c2)c1 | 56.8
35 | – | 22.2 | O=C(Nc1cncc(-c2cc3c(-c4nc5c(-c6cccs6)nccc5[nH]4)n[nH]c3cn2)c1)C1CC1 | 68.3
5 | – | 3450 | CC(C)CC(=O)Nc1cncc(-c2ccc3[nH]nc(-c4cc5c(N6CCN(C)CC6)ccnc5[nH]4)c3n2)c1 | 49.5
16 | – | > 10000 | CN1CCN(c2nccc3[nH]c(-c4n[nH]c5cnc(-c6cncc(N)c6)cc45)cc23)CC1 | 49.8
5 | – | > 10000 | CC(C)CC(=O)Nc1cncc(-c2cnc3[nH]nc(-c4cc5c(-c6cccnc6)ccnc5[nH]4)c3c2)c1 | 43.5
21 | – | 594 | Fc1ccc(-c2cncc3[nH]c(-c4n[nH]c5ncc(-c6cncnc6)cc45)cc23)cc1 | 23.8
32 | – | > 10000 | CS(=O)(=O)NCc1cc(F)cc(-c2cncc3[nH]c(-c4n[nH]c5cnc(-c6cncc(NC(=O)C7CCC7)c6)cc45)cc23)c1 | 15.5
26 | – | 700 | CC(C)C(=O)Nc1cncc(-c2cc3c(-c4cc5c(N6CCN(C)CC6)cccc5[nH]4)n[nH]c3cn2)c1 | 36.4
10 | – | 22 | CC(C)CC(=O)Nc1cncc(-c2ccc3[nH]nc(-c4nc5c(-c6cc(F)cc(NCCN(C)C)c6)cncc5[nH]4)c3c2)c1 | 82
7 | – | 681 | COc1cncc(C(=O)Nc2c[nH]nc2C(=O)Nc2ccc(N3CCNCC3)nc2)c1 | 90.7
9 | – | 1060 | c1cncc(-c2cnc3[nH]nc(-c4cc5cccnc5[nH]4)c3c2)c1 | 11
46 | – | 642 | O=C(Nc1cncc(-c2ccc3[nH]nc(-c4cc5c(-c6ccccc6F)nccc5[nH]4)c3n2)c1)C1CC1 | 24.8
48 | – | 40.9 | CCNCc1cncc(-c2cnc3[nH]nc(-c4nc5c(-c6cccc(F)c6)cccc5[nH]4)c3c2)c1 | 98.7
34 | – | > 10000 | c1cncc(-c2ccc3[nH]nc(-c4cc5c(-c6cccnc6)ccnc5[nH]4)c3c2)c1 | 16.7
18 | – | 45 | CCC(=O)Nc1cncc(-c2ccc3[nH]nc(-c4cc5c(-c6cccc(F)c6)nccc5[nH]4)c3c2)c1 | 16.2
24 | – | 1350 | O=C(Nc1cncc(-c2ccc3[nH]nc(-c4cc5c(-c6cccnc6)cncc5[nH]4)c3c2)c1)C1CCCC1 | 45.5
12 | – | 1350 | FC1(F)CCN(Cc2cncc(-c3cc4c(-c5cc6cccnc6[nH]5)n[nH]c4cn3)c2)C1 | 45.3
2 | – | 3570 | CCCCC(=O)Nc1cncc(-c2cc3c(-c4cc5cnccc5[nH]4)n[nH]c3cn2)c1 | 49.9
42 | – | > 10000 | CN(C)Cc1cncc(-c2ccc3[nH]nc(-c4cc5cccnc5[nH]4)c3n2)c1 | 37
82 | – | 415 | CN(C)Cc1cncc(-c2ccc3[nH]nc(-c4cc5c(-c6cccnc6)cccc5[nH]4)c3n2)c1 | 35.9
5 | – | 345 | O=C(CC1CCNCC1)Nc1cncc(-c2cc3c(-c4nc5c(-c6cccc(F)c6)ccnc5[nH]4)n[nH]c3cn2)c1 | 54.7
93 | – | > 10000 | CN1CCN(c2ccnc3[nH]c(-c4n[nH]c5ccc(-c6cncc(N)c6)nc45)nc23)CC1 | 46.9
30 | – | 823 | O=C(Nc1cncc(-c2ccc3[nH]nc(-c4nc5c(-c6ccccc6F)cccc5[nH]4)c3n2)c1)C(F)(F)F | 40.1
